Experimental data as given in patent US20150148306A1, “COMPOSITIONS AND METHODS FOR THE TREATMENT OF INFLAMMATION” (priority 2012, published 2015).

Assay: physchem
Format: physicochemical
Details: water, thermodynamic from solid
Method: Measurement of the water solubility of the test compounds is accomplished by using methods well known to those skilled in the art. Specifically, to a weighed amount of the test compound of the example compound Formula I (1-1) distilled water was added in small proportions until a clear solution was obtained. The total volume of the solution is measured. The water solubility is calculated by dividing the weight of the salt, in milligrams (mg), by the volume of the solution, in mL. […] The compound of Formula I (1-1) is therefore, at least 372 times more soluble in water than EPA itself. This is a clear indication of an unexpectedly high degree of bioavailability of the compositions of the invention. Highly water soluble medicinal preparations, when administered orally, result in efficient absorption from the gastrointestinal tract in to systemic circulation. Furthermore, water soluble preparations are especially suitable for parenteral administration.

solubility: < 200 µg/mL
SMILES: CC/C=C\C/C=C\C/C=C\C/C=C\C/C=C\CCCC(=O)O [EPA, Eicosapentaenoic Acid]
